US7432400B2, “Biphenylene compounds” (Ciba Specialty Chemicals Corp., priority 2001, dated 2008)
Several values for one entry are separate records, joined by “and”; a condition that tells them apart may be missing. Equal entries are not always repeated.

Key:
[1] = UV absorption (λmax) of the biphenyl compounds as UV filters; format: physicochemical; details: measured in acetonitrile 98/water 2
Excerpt: By way of example, the following Table lists a number of biphenyl compounds according to the invention together with their λmax values (measured in acetonitrile 98/water 2).

[2] = as above; format: physicochemical

CC(C)(C)C1CCC(=O)/C(=C/c2ccc(-c3ccc(/C=C4\CC(C(C)(C)C)CCC4=O)cc3)cc2)C1 (centres unmarked) [Example 1]
λmax [nm] [1]: 357 nm

O=C1/C(=C/c2ccc(-c3ccc(/C=C4\CCc5ccccc5C4=O)cc3)cc2)CCc2ccccc21 [Example 2]
λmax [nm] [1]: 351 nm

COc1ccc2c(c1)CC/C(=C\c1ccc(-c3ccc(/C=C4\CCc5cc(OC)ccc5C4=O)cc3)cc1)C2=O [Example 3]
λmax [nm] [1]: 351 nm

CCCCCCC1CC/C(=C\c2ccc(-c3ccc(/C=C4\CCC(CCCCCC)C4=O)cc3)cc2)C1=O (centres unmarked) [Example 4]
λmax [nm] [1]: 282 nm

O=C(/C=C/c1ccc(-c2ccc(/C=C/C(=O)c3ccc(F)cc3)cc2)cc1)c1ccc(F)cc1 [Example 5]
λmax [nm] [1]: 358 nm

O=C1CCCCC/C1=C\c1ccc(-c2ccc(/C=C3\CCCCCC3=O)cc2)cc1 [Example 6]
λmax [nm] [1]: 337 nm

O=C1CCCCCC/C1=C\c1ccc(-c2ccc(/C=C3\CCCCCCC3=O)cc2)cc1 [Example 7]
λmax [nm] [1]: 315 nm

C/C(=C\c1ccc(-c2ccc(/C=C(\C)C(=O)c3ccccc3)cc2)cc1)C(=O)c1ccccc1 [Example 8]
λmax [nm] [1]: 326 nm

O=C(/C(=C/c1ccc(-c2ccc(/C=C(/C(=O)c3ccccc3)c3ccccc3)cc2)cc1)c1ccccc1)c1ccccc1 [Example 9]
λmax [nm] [1]: 326 nm

O=C1OCCCC/C1=C\c1ccc(-c2ccc(/C=C3\CCCCOC3=O)cc2)cc1 [Example 10]
λmax [nm] [1]: 361 nm

CC(=O)/C(=C\c1ccc(-c2ccc(/C=C(\C(C)=O)C(=O)OC(C)(C)C)cc2)cc1)C(=O)OC(C)(C)C [Example 11]
λmax [nm] [1]: 345 nm

O=C1/C(=C/c2ccc(-c3ccc(/C=C4/C(=O)C5CCN4CC5)cc3)cc2)N2CCC1CC2 [Example 13]
λmax (dioxane) ([2]; in dioxane): 235 nm and 350 nm

O=C1NC(=O)C(=Cc2ccc(-c3ccc(C=C4C(=O)NC(=O)NC4=O)cc3)cc2)C(=O)N1 [Example 15]
λmax (DMSO) ([2]; in DMSO): 396 nm | E (1%, 1 cm) ([2]; in DMSO, at λmax 396 nm): 1134
